From patent US20230146675A1, “PYRIMIDO[5,4-d]PYRIMIDINE DERIVATIVES AS ENT INHIBITORS FOR THE TREATMENT OF CANCERS, AND COMBINATION THEREOF WITH ADENOSINE RECEPTOR ANTAGONISTS” (ITEOS BELGIUM SA, priority 2020, published 2023) come the findings set out here.

Format in all cases: biochemical
Assay [1] deals with T1, Human phosphodiesterase-3A (Homo sapiens, UniProt Q14432).
T1 construct: host or cells: Sf9 cells
As to the kind of experiment: PDE3A (h) assay. How it is done:
The test compound (compound 72), reference compound or water (control) were added to a buffer containing 40 mM Tris/HCl (pH 7.4) and 8 mM MgCl2, 180 nM cAMP and 0.1 μCi [3H]cAMP. Thereafter, the reaction was initiated by addition of the enzyme (about 0.8 U) and the mixture was incubated for 20 min at 22° C. For basal control measurements, the enzyme was omitted from the reaction mixture. Following incubation SPA beads were added. After 30 min at 22° C. under shaking, the amount of [3H]5′AMP was quantified with a scintillation counter (MicroBeta, Perkin Elmer). The results were expressed as a percent inhibition of the control enzyme activity. The standard inhibitory reference compound was papaverine, which was tested in each experiment at several concentrations to obtain an inhibition curve from which its IC50 value was calculated. • Human phosphodiesterase-3A quantified by measuring the formation of 5′AMP from cAMP using a human recombinant enzyme expressed in Sf9 cells
The test compound (compound 72), reference compound or water (control) were added to a buffer containing 40 mM Tris/HCl (pH 7.4) and 8 mM MgCl2, 450 nM cAMP and 0.25 μCi [3H]cAMP. […] After 30 min at 22° C. under shaking, the amount of [3H]5′AMP was quantified with a scintillation counter (Topcount, Packard). The results were expressed as a percent inhibition of the control enzyme activity. […]

In assay [2] the target is T2, Human phosphodiesterase-11A (Homo sapiens, UniProt Q9HCR9).
T2 construct: host or cells: Sf9 cells
As to the kind of experiment: PDE11A (h) assay. How it is done:
(§1) The test compound (compound 72), reference compound or water (control) were added to a buffer containing 40 mM Tris/HCl (pH 7.4) and 8 mM MgCl2, 450 nM cAMP and 0.25 μCi [3H]cAMP. Thereafter, the reaction was initiated by addition of the enzyme (about 4 ng) and the mixture was incubated for 15 min at 22° C. For basal control measurements, the enzyme was omitted from the reaction mixture. Following incubation SPA beads were added. After 30 min at 22° C. under shaking, the amount of [3H]5′AMP was quantified with a scintillation counter (Topcount, Packard). The results were expressed as a percent inhibition of the control enzyme activity. The standard inhibitory reference compound was milrinone, which was tested in each experiment at several concentrations to obtain an inhibition curve from which its IC50 value was calculated. • Human phosphodiesterase-11A quantified by measuring the formation of 5′AMP from cAMP using a human recombinant enzyme expressed in Sf9 cells.
The test compound (compound 72), reference compound or water (control) were added to a buffer containing 40 mM Tris/HCl (pH 7.4) and 8 mM MgCl2, 450 nM cAMP and 0.25 μCi [3H]cAMP. […] After 30 min at 22° C. under shaking, the amount of [3H]5′AMP was quantified with a scintillation counter (MicroBeta, Perkin Elmer). The results were expressed as a percent inhibition of the control enzyme activity.

Assay [3] deals with T3, Human phosphodiesterase-4A1A (Homo sapiens, UniProt P27815).
T3 construct: host or cells: Sf9 cells
The assay can be described thus: PDE4A1A (h) assay. On the procedure: The test compound (compound 72), reference compound or water (control) were added to a buffer containing 40 mM Tris/HCl (pH 7.4) and 8 mM MgCl2, 450 nM cAMP and 0.25 μCi [3H]cAMP. Thereafter, the reaction was initiated by addition of the enzyme (about 3 U) and the mixture was incubated for 20 min at 22° C. For basal control measurements, the enzyme was omitted from the reaction mixture. Following incubation SPA beads were added. After 30 min at 22° C. under shaking, the amount of [3H]5′AMP was quantified with a scintillation counter (MicroBeta, Perkin Elmer). The results were expressed as a percent inhibition of the control enzyme activity.
as §1, with “Thereafter, the reaction was initiated by addition of the enzyme (about 4 ng) and the mixture was incubated for 15 min at 22° C. For basal control measurements, the enzyme was omitted from the reaction mixture. Following incubation SPA beads were added.” left out, “(MicroBeta, Perkin Elmer).” for “(Topcount, Packard).”, “Ro 20-1724,” for “milrinone,”, “phosphodiesterase-4B1” for “phosphodiesterase-11A”

The target in assay [4] is T4, Human phosphodiesterase-4D2 (Homo sapiens, UniProt Q08499).
T4 construct: host or cells: Sf9 cells
The assay can be described thus: PDE4D2 (h) assay. On the procedure: The test compound (compound 72), reference compound or water (control) were added to a buffer containing 40 mM Tris/HCl (pH 7.4), 8 mM MgCl2 and 1.7 mM EGTA/NaOH, 450 nM cAMP and 0.25 μCi [3H]cAMP. Thereafter, the reaction was initiated by addition of the enzyme (about 1.2 U) and the mixture was incubated for 20 min at 22° C. For basal control measurements, the enzyme was omitted from the reaction mixture. Following incubation SPA beads were added. After 30 min at 22° C. under shaking, the amount of [3H]5′AMP was quantified with a scintillation counter (MicroBeta, Perkin Elmer). The results were expressed as a percent inhibition of the control enzyme activity. The standard inhibitory reference compound was Ro 20-1724, which was tested in each experiment at several concentrations to obtain an inhibition curve from which its IC50 value was calculated. • Human phosphodiesterase-4D2 quantified by measuring the formation of 5′AMP from cAMP using a human recombinant enzyme expressed in Sf9 cells.
The test compound (compound 72), reference compound or water (control) were added to a buffer containing 40 mM Tris/HCl (pH 7.4) and 8 mM MgCl2, 450 nM cAMP and 0.0125 μCi [3H]cAMP. […] After 30 min at 22° C. under shaking, the amount of [3H]5′AMP was quantified with a scintillation counter (Topcount, Packard). The results were expressed as a percent inhibition of the control enzyme activity. […]

T2 sequence (Q9HCR9 whole entry): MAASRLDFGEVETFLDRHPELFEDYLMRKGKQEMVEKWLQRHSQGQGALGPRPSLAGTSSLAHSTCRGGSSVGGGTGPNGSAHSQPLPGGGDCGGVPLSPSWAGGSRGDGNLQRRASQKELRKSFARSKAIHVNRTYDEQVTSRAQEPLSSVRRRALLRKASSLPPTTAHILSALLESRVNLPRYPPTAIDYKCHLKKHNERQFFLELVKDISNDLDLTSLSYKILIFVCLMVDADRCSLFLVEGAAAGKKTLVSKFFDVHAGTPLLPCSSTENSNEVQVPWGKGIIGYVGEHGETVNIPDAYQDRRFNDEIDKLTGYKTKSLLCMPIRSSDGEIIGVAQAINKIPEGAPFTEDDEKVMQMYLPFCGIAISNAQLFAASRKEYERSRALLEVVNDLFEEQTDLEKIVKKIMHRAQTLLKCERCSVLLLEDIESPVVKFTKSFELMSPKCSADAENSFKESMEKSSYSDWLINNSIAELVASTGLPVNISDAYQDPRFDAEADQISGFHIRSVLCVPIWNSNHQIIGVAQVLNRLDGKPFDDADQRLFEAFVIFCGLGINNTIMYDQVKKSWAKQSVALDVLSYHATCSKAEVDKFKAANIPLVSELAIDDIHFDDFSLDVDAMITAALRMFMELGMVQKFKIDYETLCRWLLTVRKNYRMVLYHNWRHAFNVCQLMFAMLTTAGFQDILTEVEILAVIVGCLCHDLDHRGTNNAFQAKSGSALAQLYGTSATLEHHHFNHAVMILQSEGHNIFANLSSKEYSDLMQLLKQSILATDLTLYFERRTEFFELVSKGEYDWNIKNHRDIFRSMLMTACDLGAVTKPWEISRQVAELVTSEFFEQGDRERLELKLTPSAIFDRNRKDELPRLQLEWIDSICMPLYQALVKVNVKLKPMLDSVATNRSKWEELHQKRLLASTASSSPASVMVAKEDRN
T3 sequence (P27815 1-647 isoform P27815-4): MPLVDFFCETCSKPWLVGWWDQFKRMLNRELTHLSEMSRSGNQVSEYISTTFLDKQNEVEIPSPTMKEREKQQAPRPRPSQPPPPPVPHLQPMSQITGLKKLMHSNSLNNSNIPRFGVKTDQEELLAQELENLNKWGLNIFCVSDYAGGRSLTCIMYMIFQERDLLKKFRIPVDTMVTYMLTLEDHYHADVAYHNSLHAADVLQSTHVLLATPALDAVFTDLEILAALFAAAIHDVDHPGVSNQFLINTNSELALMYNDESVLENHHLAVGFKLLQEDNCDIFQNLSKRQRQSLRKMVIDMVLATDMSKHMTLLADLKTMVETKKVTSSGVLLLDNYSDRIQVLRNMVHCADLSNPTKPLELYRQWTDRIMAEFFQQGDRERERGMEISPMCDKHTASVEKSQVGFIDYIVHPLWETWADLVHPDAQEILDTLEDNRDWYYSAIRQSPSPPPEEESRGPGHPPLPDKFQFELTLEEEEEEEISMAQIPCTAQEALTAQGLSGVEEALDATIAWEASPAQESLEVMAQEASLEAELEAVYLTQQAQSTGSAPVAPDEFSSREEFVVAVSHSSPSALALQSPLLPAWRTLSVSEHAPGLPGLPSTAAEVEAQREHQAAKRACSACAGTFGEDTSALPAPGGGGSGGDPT
T4 sequence (Q08499 303-809 limits assumed): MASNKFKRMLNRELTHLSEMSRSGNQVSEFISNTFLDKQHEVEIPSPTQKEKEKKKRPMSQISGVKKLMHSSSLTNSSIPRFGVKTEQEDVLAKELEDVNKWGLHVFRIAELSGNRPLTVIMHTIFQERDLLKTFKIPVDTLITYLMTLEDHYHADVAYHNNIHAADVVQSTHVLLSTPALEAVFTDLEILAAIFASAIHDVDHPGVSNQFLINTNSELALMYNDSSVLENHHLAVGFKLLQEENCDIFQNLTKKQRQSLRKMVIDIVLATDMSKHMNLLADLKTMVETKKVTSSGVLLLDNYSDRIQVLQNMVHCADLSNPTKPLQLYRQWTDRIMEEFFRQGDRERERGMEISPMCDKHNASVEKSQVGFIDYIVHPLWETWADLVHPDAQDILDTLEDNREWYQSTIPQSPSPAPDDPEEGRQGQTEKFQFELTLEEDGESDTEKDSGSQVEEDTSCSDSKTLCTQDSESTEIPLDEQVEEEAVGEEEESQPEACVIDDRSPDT
T1 sequence (Q14432 whole entry): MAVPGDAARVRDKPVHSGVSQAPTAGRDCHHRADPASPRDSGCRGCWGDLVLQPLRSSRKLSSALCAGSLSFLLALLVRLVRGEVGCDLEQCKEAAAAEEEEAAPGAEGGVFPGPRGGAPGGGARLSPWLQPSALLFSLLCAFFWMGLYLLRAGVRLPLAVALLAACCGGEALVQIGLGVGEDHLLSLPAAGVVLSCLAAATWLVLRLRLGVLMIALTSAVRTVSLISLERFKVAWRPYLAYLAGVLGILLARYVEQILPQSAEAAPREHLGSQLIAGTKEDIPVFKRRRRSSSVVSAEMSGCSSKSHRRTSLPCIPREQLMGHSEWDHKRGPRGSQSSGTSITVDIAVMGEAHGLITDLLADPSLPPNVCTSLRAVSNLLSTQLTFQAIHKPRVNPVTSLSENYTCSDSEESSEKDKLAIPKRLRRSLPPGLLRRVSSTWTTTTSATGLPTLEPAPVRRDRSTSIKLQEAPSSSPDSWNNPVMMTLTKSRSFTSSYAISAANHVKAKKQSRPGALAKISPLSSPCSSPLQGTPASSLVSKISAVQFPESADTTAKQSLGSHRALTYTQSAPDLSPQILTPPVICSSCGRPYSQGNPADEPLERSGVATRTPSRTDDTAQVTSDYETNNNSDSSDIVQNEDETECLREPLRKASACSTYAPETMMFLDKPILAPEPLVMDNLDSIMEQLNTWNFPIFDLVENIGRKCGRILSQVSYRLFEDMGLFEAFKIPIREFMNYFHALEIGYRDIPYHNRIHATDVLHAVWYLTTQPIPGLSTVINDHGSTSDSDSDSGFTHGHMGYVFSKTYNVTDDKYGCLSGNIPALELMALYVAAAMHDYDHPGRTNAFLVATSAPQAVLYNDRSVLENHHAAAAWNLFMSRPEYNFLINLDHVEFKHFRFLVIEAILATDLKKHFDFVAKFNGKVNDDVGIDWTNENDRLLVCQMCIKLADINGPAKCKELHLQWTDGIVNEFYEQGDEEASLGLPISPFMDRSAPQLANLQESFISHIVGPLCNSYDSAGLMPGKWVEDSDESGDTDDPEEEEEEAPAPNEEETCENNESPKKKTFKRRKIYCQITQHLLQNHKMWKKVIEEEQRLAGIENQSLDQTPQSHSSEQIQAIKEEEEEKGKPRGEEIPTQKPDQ

For orientation: IC50 means the concentration that gives 50% inhibition. A high value points to a need for much substance. As to `COCCN(CCOC)c1nc(N2CCN(C)C(=O)C2)c2nc(N(CCOC)CCOC)nc(N3CCC(OC)CC3)c2n1` [Compound 72, 4-(2,6-bis(bis(2-methoxyethyl)amino)-8-(4-methoxypiperidin-1-yl)pyrimido[5,4-d]pyrimidin-4-yl)-1-methylpiperazin-2-one], the IC50 in assay [1] was above 10 µM; in assay [2], above 10 µM; in assay [3] it was above 10 µM; in assay [4] it was 1 to 10 µM. In assay [2], the “potency for PDE11A as compared to dipyridamole” value is “reduced as compared to dipyridamole”.
